According to PMC7367925, “The EU-ToxRisk method documentation, data processing and chemical testing pipeline for the regulatory use of new approach methods” (Archives of Toxicology, 2020):

How the values were obtained:
[1] = system: U-2 OS reporter cell lines battery; test: CALUX reporter gene assay battery as a whole; details: all CALUX assays, 13 concentrations, 24 h exposure
[2] = system: p53-dependent pathway activation / genotoxicity; type: cell-based, human; details: 24 h exposure, lowest effect level FI=1.5, means from 3 assay runs
Experimental: (§1) After 24 h, exposure medium was prepared. […] All samples were tested in triplicates. […] Fig. SM_4. […] Fig. SM_4.
(§2) Supplementary Material SM_4
(§3) Overview of CALUX assays.
(§4) This is defined as the concentration of test compound […]
(§5) for an antagonist assay is a PC20.
(§6) PC = positive control. FI = fold induction. PC10: concentration where test compound causes an activation equal to 10% of the maximum effect (positive control). PC20: concentration where test compound causes […]
(§7) FI=1.5: concentration where test
(§8) (A) exemplary graph of concentration- […]
(§9) receptor antagonism assay with PC20 as lowest-effect-level. (C) exemplary graph for assay with 1.5 fold inductionas lowest effect level. 9

PPARα = target: T1, PPARα (Homo sapiens, UniProt Q07869); test: PPARa CALUX; type: cell-based; details: 24 h exposure, lowest effect level PC10, means from 3 assay runs
T1 construct: host or cells: U-2 OS
T1 sequence (Q07869 1-468): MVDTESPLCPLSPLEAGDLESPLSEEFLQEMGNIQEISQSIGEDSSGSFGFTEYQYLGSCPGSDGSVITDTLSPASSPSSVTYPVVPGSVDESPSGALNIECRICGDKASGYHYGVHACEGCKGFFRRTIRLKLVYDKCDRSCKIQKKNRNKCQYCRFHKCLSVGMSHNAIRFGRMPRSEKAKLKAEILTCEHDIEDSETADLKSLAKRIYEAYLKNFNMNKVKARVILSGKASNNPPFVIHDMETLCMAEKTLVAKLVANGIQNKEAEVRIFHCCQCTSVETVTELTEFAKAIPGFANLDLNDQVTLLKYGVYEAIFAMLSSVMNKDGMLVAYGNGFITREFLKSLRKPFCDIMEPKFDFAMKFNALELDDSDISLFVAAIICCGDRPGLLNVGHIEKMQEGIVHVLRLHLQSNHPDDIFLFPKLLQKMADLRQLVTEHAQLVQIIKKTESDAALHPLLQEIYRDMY
Experimental: as §1
(§10) Cell line Endpoint effect Reference compound […]
PPARa CALUX Peroxisomeproliferator activated receptor agonists PC10 GW7647 […]
as §2, §3, §4, §5, §6, §7, §8, §9

PPARδ = target: T2, PPARδ (Homo sapiens, UniProt Q03181); test: PPARd CALUX; type: cell-based; details: 24 h exposure, lowest effect level PC10, means from 3 assay runs
T2 construct: host or cells: U-2 OS
T2 sequence (Q03181 1-441): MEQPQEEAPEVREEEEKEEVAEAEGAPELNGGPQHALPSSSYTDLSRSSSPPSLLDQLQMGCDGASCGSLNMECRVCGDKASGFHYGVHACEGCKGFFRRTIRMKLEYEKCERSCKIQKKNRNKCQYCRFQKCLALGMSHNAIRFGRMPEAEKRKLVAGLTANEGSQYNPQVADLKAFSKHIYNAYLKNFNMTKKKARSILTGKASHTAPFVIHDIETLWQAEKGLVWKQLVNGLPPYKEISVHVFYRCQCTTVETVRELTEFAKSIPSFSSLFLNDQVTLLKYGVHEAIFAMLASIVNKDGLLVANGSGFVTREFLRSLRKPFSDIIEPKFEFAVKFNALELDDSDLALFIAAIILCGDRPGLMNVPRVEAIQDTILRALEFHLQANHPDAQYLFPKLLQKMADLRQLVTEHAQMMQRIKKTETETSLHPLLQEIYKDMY

PPARγ = target: T3, PPARγ (Homo sapiens, UniProt P37231); test: PPARg2 CALUX; type: cell-based; details: 24 h exposure, lowest effect level PC10, means from 3 assay runs
T3 construct: host or cells: U-2 OS
T3 sequence (P37231 1-505): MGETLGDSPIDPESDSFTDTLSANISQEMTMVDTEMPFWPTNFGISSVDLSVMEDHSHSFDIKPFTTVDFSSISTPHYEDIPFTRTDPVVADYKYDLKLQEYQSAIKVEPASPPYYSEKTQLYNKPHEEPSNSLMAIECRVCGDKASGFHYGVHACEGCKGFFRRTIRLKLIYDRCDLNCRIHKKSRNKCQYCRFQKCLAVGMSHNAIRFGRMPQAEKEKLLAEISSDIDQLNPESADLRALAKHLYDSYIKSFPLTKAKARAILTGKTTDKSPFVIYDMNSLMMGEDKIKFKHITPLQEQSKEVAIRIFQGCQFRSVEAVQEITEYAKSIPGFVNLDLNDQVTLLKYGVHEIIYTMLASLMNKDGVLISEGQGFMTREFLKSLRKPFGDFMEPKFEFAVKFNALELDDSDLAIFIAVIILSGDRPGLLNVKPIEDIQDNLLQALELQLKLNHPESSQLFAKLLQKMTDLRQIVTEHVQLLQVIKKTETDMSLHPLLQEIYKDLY
Experimental: as §1, §10, §2, §3, §4, §5, §6, §7, §8, §9

[3] = system: AP1 pathway activation / cell cycle control; test: AP-1 CALUX; type: cell-based, human; details: 24 h exposure, lowest effect level PC10, means from 3 assay runs
Experimental: as §1, §2, §3, §4, §5, §6, §7, §8, §9

Nrf2 (Oxidative stress) = test: Nrf2 CALUX; type: cell-based, human; details: 24 h exposure, lowest effect level FI=1.5, means from 3 assay runs
Experimental: as §1, §2, §3, §4, §5, §6, §7, §8, §9

[4] = design: method as in Sommar et al. 2000; details: KAW < 0.03 considered non-volatile; ref Sommar et al. 2000; cited from earlier work
U-2 OS cells = test: Cytotox CALUX; details: 24 h exposure, lowest effect level PC20, means from 3 assay runs

Row | SMILES | response profile over the CALUX battery (in words) [1] | PoD p53 [2] | PoD PPARα - ago (PPARα) | PoD PPARδ - ago (PPARδ) | PoD PPARγ - ago (PPARγ) | PoD AP1 [3] | PoD Nrf2 (Nrf2 (Oxidative stress)) | air-water partition coefficient KAW [4] | PoD cytotoxicity (U-2 OS cells)
1 | CC(C)Cc1ccc(C(C)C(=O)O)cc1 (centres unmarked) [Ibuprofen] | activated all three isoforms of the peroxisome proliferator activated receptor | 3.0 -log(M) | 4.3 -log(M) | 4.0 -log(M) | 4.0 -log(M) |  |  |  | 
2 | [Cl][Hg][Cl] [Mercury chloride] | only activated stress pathway related assays | 5.7 -log(M) |  |  |  | 5.8 -log(M) | 5.5 -log(M) | 0.02 | 4.7 -log(M)
